Measured values as given in ChEMBL document CHEMBL5365456, “Isolation and biological activity of natural chalcones based on antibacterial mechanism classification” (Bioorg Med Chem, 2023).
Values after ≈ are worked out from the molar mass of the structure shown.

Columns and labels:
Assay type in all cases: functional
Staphylococcus aureus [1] = experiment: Antibacterial activity against Staphylococcus aureus MSSA1 assessed bacterial growth inhibition by CLSI-based broth microdilution method
Staphylococcus aureus [2] = experiment: Antibacterial activity against Staphylococcus aureus ATCC 29213 assessed as bacterial growth inhibition incubated for 18 hrs by CLSI-based broth microdilution method
Clostridioides difficile = experiment: Antibacterial activity against Clostridium difficile ATCC 43255 assessed as bacterial growth inhibition incubated for 24 hrs by two-fold serial dilution method
Bacillus subtilis = experiment: Bactericidal activity against Bacillus subtilis as by CLSI-based micro broth dilution method
Staphylococcus aureus [3] = experiment: Antibiofilm activity against Staphylococcus aureus 6538 at 0.78 ug/ml incubated for 24 hr by crystal violet staining based assay relative to control
Staphylococcus aureus [4] = experiment: Antibiofilm activity against Staphylococcus aureus 6538 incubated for 24 hr by crystal violet staining based assay
Staphylococcus aureus [5] = experiment: Antibiofilm activity against Staphylococcus aureus BAA44 incubated for 24 hr by crystal violet staining based assay
Staphylococcus aureus [6] = experiment: Antibiofilm activity against Staphylococcus aureus BAA44 at 0.78 ug/ml incubated for 24 hr by crystal violet staining based assay relative to control

MIC (Staphylococcus aureus [1]): 0.5 µg/mL (≈ 1.54 µM)
MIC (Staphylococcus aureus [2]): 4 µg/mL (≈ 12.3 µM)
MIC (Clostridioides difficile): 4 µg/mL (≈ 12.3 µM)
SMILES: CC(C)=CCc1c(O)ccc(C(=O)/C=C/c2ccc(O)cc2)c1O [ISOBAVACHALCONE]
MBC (Bacillus subtilis): 4 µg/mL (≈ 12.3 µM)
inhibition at 0.78 µg/mL (Staphylococcus aureus [3]): 75%
MBIC (Staphylococcus aureus [4]): 0.78 µg/mL
MBIC (Staphylococcus aureus [5]): 0.78 µg/mL
inhibition at 0.78 µg/mL (Staphylococcus aureus [6]): 80%
